From patent US20100105745A1, “Suppression of cancer and method for evaluating anticancer agent based on the effect of inhibiting gsk3 beta” (priority 2005, published 2010)

Key:
HEK293 cells [1] = assay: MTS viable cell assay (cell survival); type: cell-based, human; conditions: FIG. 4A
Protocol: (§1) Each colon cancer cell line and HEK293 cells were seeded at 3×10^3 cells per well of 96-well culture plates and then cultured overnight in corresponding media (this day was designated day 0). Known GSK3β inhibitors, AR-A014418 (N-(4-methoxybenzyl)-N′-(5-nitro-1,3-thiazol-2-yl)urea, Calbiochem) and SB-216763 (3-(2,4-dichlorophenyl)-4-(1-methyl-1H-indol-3-yl)-1H-pyrrole-2,5-dione, Sigma-Aldrich) were dissolved in dimethyl sulfoxide (DMSO). On day 0, the medium for each cell line were exchanged and then AR-A014418 or SB-216763 was added to the medium to different concentrations (5, 10, 25, and 50 μM). As controls, samples prepared by adding AR-A014418 or SB-216763 to the same concentrations to wells containing no cells and a sample prepared by adding DMSO alone to a well containing cells were analyzed simultaneously.
(§2) At time points after indicated lengths of the times (24, 48, 72, and 96 hours) had elapsed from day 0, the number of viable cells in each well was measured using an MTS* viable cell measurement kit (CellTiter 96™ Aqueous, Promega Corp) in accordance with the protocols of Promega. Practically, 20 μL of an MTS mixture solution that had been prepared immediately before addition was added to each well, followed by three hours of reaction at 37° C. under 5% CO2 wet conditions. Absorbance at a wavelength of 490 nm was measured using a THERMOmax microplate reader (Molecular Devices). The number of cells of each cell line (in 6 wells for treatment by each concentration of AR-A014418 or SB-216763) was measured, and the average absorbance was calculated to determine the number of viable cells.

[2] = system: Colon cancer cell lines (SW480 and HCT116); assay: MTS viable cell assay (cell survival); type: cell-based, human; conditions: 5, 10, 25, and 50 μM, 24-96 hours, FIG. 4A
Protocol: as §1, §2

HEK293 cells [3] = assay: Apoptosis (Hoechst staining) and proliferation (PCNA labeling index) by double staining; type: cell-based, human; conditions: for changes in apoptosis frequency: FIG. 4C; for changes in cellular proliferation rates (PCNA labeling index): FIG. 4D
Protocol: (§3) A, B, and E: The number of viable cells in each well as measured by MTS assay at points in time at which the indicated lengths of the time (24, 48, 72, and 96 hours) had elapsed since day 0. C and D: The proportion (D) of proliferating cells' nuclei (PCNA positive) in all the cells observed or the proportion (C) of nuclei undergoing apoptosis in all the cells observed when the cells were subjected to double staining by an immunofluorescence method using an anti-PCNA (proliferating cell nuclear antigen) antibody and Hoechst and then observed under a fluorescence microscope.

colon cancer cells = assay: as above; type: cell-based, human; conditions: for cellular proliferation rates (PCNA labeling index): FIG. 4D; for apoptosis frequency: Hoechst staining, FIG. 4C
Protocol: as §3

[4] = system: glioblastoma cell line (A172, T98G, U251, and U87); assay: Cell Proliferation ELISA BrdU incorporation; type: cell-based, human; conditions: glioblastoma cells; FIG. 10C
Protocol: (§4) Each cell line was cultured overnight and then cultured in medium to which AR-A014418 or SB-216763 dissolved in DMSO had been added to predetermined concentrations (5 μM, 10 μM, 25 μM or 40 μM, and 50 μM). Number of viable cells and apoptosis frequencies were measured over time. As controls, number of viable cells and apoptosis frequencies were also measured for cells that had been cultured after addition of the same amount of DMSO. In addition, unlike <Example 1>, a WST-8** assay kit (Cell Counting Kit-8, Wako, Osaka) and a microplate reader produced by Bio-Rad Laboratories, Inc. (Hercules, Calif.) were used for measurement of number of viable cells. Furthermore, regarding cell fractions during the proliferation phase, the number of cells incorporating bromodeoxy uridine (BrdU) was measured using a Cell Proliferation ELISA BrdU Kit (Roche, Panzberg, Germany), and then the influence of the GSK3β inhibitor (AR-A014418 or SB-216763) on the proliferation of tumor cells was analyzed.

[5] = system: glioblastoma cell line (A172, T98G, U251, and U87); assay: Apoptosis frequency; type: cell-based, human; conditions: glioblastoma cells; compared with DMSO; FIG. 10B
Protocol: as §4, with “In this example, 4 types of glioblastoma cell line (A172, T98G, U251, and U87 purchased from American Type Culture Collection [ATCC, Manassas, Va.]) and human embryonic kidney cells HEK293 were used as subjects. The expression of GSK3β and the expression of its fractions that had undergone phosphorylation in these cell lines were analyzed in accordance with <Example 1>. Furthermore, the effects of a known GSK3β inhibitor (AR-A014418 or SB-216763) on the survival, proliferation, and apoptosis of tumor cells were analyzed in a manner similar to that in the case of colon cancer cells. Each” for “Each”

HEK293 cells [6] = assay: Apoptosis frequency; type: cell-based, human; conditions: compared with DMSO, FIG. 10B
Protocol: as §4, with “In this example, 4 types of glioblastoma cell line (A172, T98G, U251, and U87 purchased from American Type Culture Collection [ATCC, Manassas, Va.]) and human embryonic kidney cells HEK293 were used as subjects. The expression of GSK3β and the expression of its fractions that had undergone phosphorylation in these cell lines were analyzed in accordance with <Example 1>. Furthermore, the effects of a known GSK3β inhibitor (AR-A014418 or SB-216763) on the survival, proliferation, and apoptosis of tumor cells were analyzed in a manner similar to that in the case of colon cancer cells. Each” for “Each”

[7] = system: glioblastoma cell line (A172, T98G, U251, and U87); assay: WST-8 viable cell assay; type: cell-based, human; conditions: 5-50 μM, compared with DMSO, FIGS. 9, 10A
Protocol: as §4, with “In this example, 4 types of glioblastoma” for “Each”, “(A172, T98G, U251,” for “was cultured overnight”, “U87 purchased from American Type Culture Collection [ATCC, Manassas, Va.]) and human embryonic kidney cells HEK293 were used as subjects. The expression of GSK3β and the expression of its fractions that had undergone phosphorylation” for “then cultured”, “these cell lines were analyzed in accordance with <Example 1>. Furthermore, the effects of a known GSK3β inhibitor (AR-A014418 or SB-216763) on the survival, proliferation, and apoptosis of tumor cells were analyzed in a manner similar” for “medium”, “that” for “which AR-A014418 or SB-216763 dissolved”, “the case of colon cancer cells. […]” for “DMSO had been added to predetermined concentrations (5 μM, 10 μM, 25 μM or 40 μM, and 50 μM).”

[8] = system: telomerase activity in HEK293 cells; assay: Telomerase activity (TRAPEZE Telomerase Detection Kit); type: cell-based, human; conditions: 25 μM inhibitor, FIG. 14
Protocol: (§5) In accordance with <Example 1>, each colon cancer cell line (SW480 and HCT116) and a non-cancer cell line (human embryonic kidney cells HEK293) were treated with a 25 μM GSK3β inhibitor (AR-A014418 or SB-216763) or GSK3β-specific RNA interference. As controls, DMSO was administered to these cells or the cells were treated with non-specific RNA interference. Subsequently, the frequency of senescent cells in control cells was compared with that in the corresponding cells in which GSK3β had been inhibited and then the result was analyzed. Furthermore, human telomerase reverse transcriptase (hTERT) mRNA expression that is a molecular indication of cell immortalization and changes in telomerase activity in these cells were compared and analyzed over time.
(§6) hTERT mRNA expression was analyzed by extracting total RNA from subject cells and then performing the RT-PCR method. An upstream primer (5′-[…]-3′: SEQ ID NO: 3) and a downstream primer (5′-GGATGAAGCGGAGTCTGGA-3′: SEQ ID NO: 4) were used for RT-PCR. The hTERT gene was amplified by performing 36 or 38 cycles of an RT-PCR program (15 seconds at 94° C., 10 seconds at 55° C., and 9 seconds at 72° C.). Telomerase activity was detected in accordance with recommended protocols using a commercial kit (TRAPEZE® Telomerase Detection Kit, Chemicon International). hTERT expression levels and telomerase activity in GSK3β-inhibited cells and control cells were determined via measurement and quantification of signals on electrophoresis using a densitometer (NIH Image Software), followed by comparison and analysis thereof.

[9] = system: telomerase activity in colon cancer cell lines (SW480 and HCT116); assay: as above; type: cell-based, human; conditions: 25 μM inhibitor, 72 or 96 hours, FIG. 14
Protocol: as §5, §6

[10] = system: human telomerase reverse transcriptase (hTERT) in colon cancer cell lines (SW480 and HCT116); assay: hTERT mRNA expression by RT-PCR; type: cell-based; conditions: 25 μM inhibitor, 72 or 96 hours, FIG. 13
Protocol: as §5, §6

[11] = system: human telomerase reverse transcriptase (hTERT) in HEK293 cells; assay: hTERT mRNA expression by RT-PCR; type: cell-based; conditions: 25 μM inhibitor, FIG. 13
Protocol: as §5, §6

HEK293 cells [12] = assay: Cellular senescence by x-gal staining; type: cell-based, human; conditions: 25 μM, 72 hours, compared with DMSO
Protocol: (§7) In accordance with <Example 1>, each colon cancer cell line (SW480 and HCT116) and a non-cancer cell line (human embryonic kidney cells HEK293) were treated with a 25 μM GSK3β inhibitor (AR-A014418 or SB-216763) or GSK3β-specific RNA interference. As controls, DMSO was administered to these cells or the cells were treated with non-specific RNA interference. Subsequently, the frequency of senescent cells in control cells was compared with that in the corresponding cells in which GSK3β had been inhibited and then the result was analyzed. Furthermore, human telomerase reverse transcriptase (hTERT) mRNA expression that is a molecular indication of cell immortalization and changes in telomerase activity in these cells were compared and analyzed over time. Senescent cells were determined as cells found to be positive for x-gal staining that is an indicator of (3-galactosidase activity. Practically, for this staining, cells cultured on cover glasses were washed with phosphate buffered saline (PBS) and then fixed using a citrate.phosphate fixation solution (0.1 M citric acid, 0.2 M Na2HPO4, pH 6.0) at room temperature for 5 minutes. Subsequently, cells were washed twice with PBS and then caused to react using a x-gal staining solution (1 mg/mL x-gal [Sigma-Aldrich], 5 mM K3Fe[CN]6, 2 mM MgCl2, 150 mM NaCl, 30 mM citrate.phosphate buffer, and 5 mM K4Fe[CN]6) at 37° C. for 20 hours. Stained cells were washed with PBS and then fixed again with 4% paraformaldehyde. X-gal staining positive cells were identified by observation under a light microscope. The frequency of senescent cells was determined by observing 5 high-power fields and measuring and calculating the average frequency of x-gal staining positive cells in the total number of cells (approximately 100 cells) in each field.

[13] = system: colon cancer cell line (SW480 and HCT116); assay: Cellular senescence by x-gal staining; type: cell-based, human; conditions: colon cancer cell lines; 25 μM; 72 hours; compared with DMSO; FIGS. 11 and 12
Protocol: as §7

[14] = target: GSK3β immunoprecipitated from colon cancer cell lines (SW480 and HCT116) (Homo sapiens, UniProt P49841); assay: Non-radioisotopic in vitro GSK3β enzyme activity assay; type: biochemical; conditions: 25 μM, compared with DMSO, FIG. 19
GSK3β immunoprecipitated from colon cancer cell lines (SW480 and HCT116), sequence (P49841 whole entry): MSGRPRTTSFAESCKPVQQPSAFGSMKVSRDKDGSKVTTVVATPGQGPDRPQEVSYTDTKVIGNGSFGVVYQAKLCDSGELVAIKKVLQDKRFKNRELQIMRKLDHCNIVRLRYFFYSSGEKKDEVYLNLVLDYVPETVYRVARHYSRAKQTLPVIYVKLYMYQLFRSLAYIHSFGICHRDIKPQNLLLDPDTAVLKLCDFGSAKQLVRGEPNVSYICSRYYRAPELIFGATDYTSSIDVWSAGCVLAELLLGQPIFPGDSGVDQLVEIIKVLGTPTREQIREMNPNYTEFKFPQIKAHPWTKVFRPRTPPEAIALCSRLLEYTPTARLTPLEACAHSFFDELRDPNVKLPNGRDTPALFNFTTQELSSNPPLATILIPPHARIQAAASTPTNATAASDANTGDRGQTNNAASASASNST
Protocol: First, a specific anti-GSK3β antibody and beads (resins) are added to a cell extract and then the GSK3β protein is immunoprecipitated (S in FIG. 16). As a negative control (control), non-specific mouse IgG with the same concentration is added to the same type of cell extract (C in FIG. 16). Next, in the presence of a kinase buffer, a recombinant human β-catenin protein (substrate) and nonradioactive ATP (P in FIG. 16) are added, and then a phosphorylation reaction is performed. Subsequently, the reaction solution is analyzed by the Western blot method. A phosphorylated human β-catenin protein is detected using an anti-phosphorylate β-catenin peptides antibody. […] In accordance with the methods in <Example 1>, the protein was extracted from each cell line using a cell lysis buffer (0.2 M Tris-HCl pH 7.5, 1.5 M NaCl, 10 mM EDTA, 10 mM EGTA, 10% Triton X-100, 25 mM sodium pyrophosphate, 10 mM β-glyceophosphate, 10 mM Na3VO4, and Protease inhibitors cocktail [Sigma-Aldrich]). […] Next, GSK3β and the recombinant human β-catenin protein in the reaction solutions were similarly detected by the Western blot method. […] These reaction solutions were similarly analyzed by the Western blot method.

| SMILES | effect to suppress cell survival (HEK293 cells [1]) | survival (rate) of cells [2] | changes in apoptosis frequency (HEK293 cells [3]) | changes in cellular proliferation rates (PCNA labeling index) (HEK293 cells [3]) | cellular proliferation rates (PCNA labeling index) (colon cancer cells) | apoptosis frequency (colon cancer cells) | proliferation (BrdU incorporated) [4] | apoptosis [5] | apoptosis (HEK293 cells [6]) | number of viable cells [7] | telomerase activity [8] | telomerase activity [9] | hTERT expression [10] | hTERT expression [11] | frequency of senescent cells (x-gal staining positive) (HEK293 cells [12]) | frequencies of senescent cells (x-gal staining positive) [13] | GSK3β activity (phosphorylation of recombinant human β-catenin) [14] |
| --- | --- | --- | --- | --- | --- | --- | --- | --- | --- | --- | --- | --- | --- | --- | --- | --- | --- |
| COc1ccc(CNC(=O)Nc2ncc([N+](=O)[O-])s2)cc1 [AR-A014418, N-(4-methoxybenzyl)-N′-(5-nitro-1,3-thiazol-2-yl)urea] | not observed | decreased in a manner depending on the dose | minimal | minimal | lowered | increased | suppressed | significantly induced | mildly induced by the addition of the GSK3β inhibitor to the medium, but no significant differences were observed | decreased in a manner depending on the concentration of each inhibitor | nor suppression of telomerase activity | suppressed | suppressed | neither changes in hTERT expression | no significant differences | significantly increased | completely inhibited |
| Cn1cc(C2=C(c3ccc(Cl)cc3Cl)C(=O)NC2=O)c2ccccc21 [SB-216763, 3-(2,4-Dichlorophenyl)-4-(1-methyl-1H-indol-3-yl)-1H-pyrrole-2,5-dione] | not observed | decreased in a manner depending on the dose | minimal | minimal | lowered | increased | suppressed | significantly induced | mildly induced by the addition of the GSK3β inhibitor to the medium, but no significant differences were observed | decreased in a manner depending on the concentration of each inhibitor | nor suppression of telomerase activity | suppressed | suppressed | neither changes in hTERT expression | no significant differences | significantly increased | completely inhibited |
